How the values were obtained:
[1] = test system: Rats SDCD mâles 52 semaines; assay: Acute treatment by portal perfusion in the conscious rat, with IVGTT; assay type: in vivo; settings: 0,25 µg/kg/min×60 min intraportal perfusion; vs Contrôle 57,4 ± 13,7 µU/ml
Text: La technique de perfusion portale chez le rat vigile permet d'étudier l'effet de substances pharmacologiques sur les modifications de la tolérance au glucose adminstré par voie intraveineuse.
L'injection d'agents directement dans la circulation portale permet d'éviter les effets du transit gastrique, d'absorption et de libération d'hormone par la paroi intestinale et ainsi d'explorer : • soit un effet direct sur le tissu hépatique, • soit l'existence d'un relai foie-système nerveux central-tissu périphérique (foie, muscle ou cible endocrine).
Dans cette expérimentation, on a utilisé des rats mâles adultes SPRAGUE DAWLEY par lots de 5 à 12 rats.
Les rats utilisés, agés de 52 semaines, présentent • une diminution de la tolérance au glucose, • une augmentation de l'insulinémie basale, et • une augmentation des lipides plasmatiques.
La stabulation (de 9 à 52 semaines) de ces rats a été réalisée dans une pièce à température régulée de 21 à 22 °C et soumise à un cycle fixe de lumière (de 7 h 30 à 19 h 30) et d'obscurité (de 19 h 30 à 7 h 30). Leur alimentation a consisté en un régime d'entretien (UAR A 03); eau et nourriture ont été fournies "ad libitum", à l'exception du jeûne nocturne précédant les tests où la nourriture était retirée. […]

[2] = test system: rats agés de 12 semaines, insulinorésistance induite par l'amyline; assay: Insulin resistance induced by intraportal amylin perfusion, with IVGTT; assay type: in vivo, rat; settings: Perfusion amyline + 0,75µg/kg/min pendant 60 mn
Text: A J₇ avant le début de l'expérimentation, les rats sont anesthésiés à la kétamine (IMALGENE 1000 - Rhône MERIEUX), et un cathéter en silastic (602-135, médical grade, DOW CORNING MIDLAND) est implanté dans la veine porte hépatique [cf. Strubbe J.H., Wolsink J.G., Schutte A.M., Balkan B., and Prins A.J.A. : Hepatic-portal and cardiac infusion of CKK-8 and glucagon induce different effects on feeding. Physiology and Behavior 46,643-646 (1989)] pour la perfusion du soluté physiologique (jour contrôle) puis du produit à tester. Ils sont alors placés individuellement dans des cages en plexiglas. • Après récupération, soit environ 10 jours plus tard, un second cathéter en silastic (602-155, médical grad, DOW CORNING MIDLAND) est introduit jusque dans l'oreillette droite par la veine jugulaire droite [cf. Steffens A.B : A Method for frequent sampling of blood and continuous infusion of fluids in the rat without disturbing the animal. Physiology and behavior 4, 833-836 (1969)]. Lors des test, les différents prélèvements sanguins et l'injection intra-cardiaque du bolus glucosé seront effectués à l'aide de ce cathéter. Pendant les deux interventions chirurgicales, les cathéters sont glissés sous la peau et extériorisés au-dessus de la tête au moyen d'une aiguille limée recourbée et bouchée par un capuchon de polyéthylène (PE) fermé à la bougie. • 0,4 ml d'une solution d'héparine à 500 U/ml (ROUSSEL UCLAF) suivie de 0,1 ml de PVP (Solution de Polyvinylpyrrolidone à 30 % - PM 25000 - MERCK) sont introduits dans les cathéters avant la fermeture par le capuchon de polyéthylène. La viscosité du PVP permet d'éviter un reflux du sang dans le cathéter. • La veille de chaque expérience, les rats sont soumis à un jeûne nocturne de 18 heures. Le jour de l'expérience, ces rats sont pesés et le bon fonctionnement des cathéters vérifié. • Afin d'éliminer le stress du branchement des cathéters sur les aiguilles extériorisées sur le dessus de la tête, 20 minutes de repos sont nécessaires avant de commencer l'expérience. • Les perfusions intraportales, réalisées à l'aide d'un cathéter en polyéthylène N° 3 durent 60 minutes; elles ont un débit constant de 2 ml/heure soit envirion 0,033 ml/minute, assuré par un perfuseur BRAUN. […]

[3] = test system: Rats SDCD mâles de 52 semaines; assay: Chronic per os treatment (14 days, twice daily) in the male SDCD rat aged 52 weeks; assay type: in vivo; settings: 0,5 mg/kg×2 per os, vs Contrôle 1,1 ± 0,14 g/l
Text: Les essais sont réalisés sur des rats qui présentent des anomalies pondérales associées à un hyperinsulisme et une hyperglycéridémie.
Il est recherché : • d'une part l'effet d'un traitement prolongé du produit de l'exemple 1 et de substances de référence sur ces anomalies, et • d'autre part, la consommation du glucose par le tissu adipeux est mesuré à l'état basal et en présence d'insuline (10⁻⁹ M).
On utilise des rats identiques à ceux de l'étude du traitement aigu, (cf. ci-dessus le paragraphe A- 2.1), à savoir des rats SDCD mâles agés de 52 semaines.
9 jours avant le début de l'expérimentation (J₋₉), sont constitués des lots de rats par randomisation stratifiée sur le poids.
5 jours avant le début de l'expérimentation (J₋₅), les rats sont conditionnés par administration d'une solution de gomme.
Le premier jour de l'expérimentation (J₁), les produits à tester sont administrés à différentes doses aux rats 2 fois par jour. Plus précisémment, les produits sont administrés en suspension dans la gomme entre 9 et 10 heures et 16-17 heures pendant 14 jours. Une pesée quotidienne des animaux traités est effectuée.
Le 15ème jour, les rats (à jeun depuis 18 heures) sont sacrifiés par décapitation. Le sang est recueilli directement dans une cupule. Un aliquote (50 µl) est transféré dans 500 µl d'acétate d'uranyl pour dosage de la glycémie. […]

[4] = test system: LDL; assay: LDL oxidation in vitro by copper; assay type: biochemical; settings: à 10⁻⁴ M
Text: (§1) Une étude comparative entre le produit de l'exemple 1 et les substances de référence (Benfluorex, Diméthylbiguanide) sur l'oxydation des LDL in vitro a été réalisée.

[5] = test system: LDL; assay: LDL oxidation in vitro by monocytes; assay type: cell-based; settings: à 10⁻⁴ M
Text: as §1

## COC(CNCCOC(=O)c1ccc(CCNC(=O)CC2c3ccccc3-c3ccccc32)cc1)c1cccc(C(F)(F)F)c1 (single isomer, unassigned) [Exemple 1, Isomère lévogyre du chlorhydratede para-[2-(α-fluorén-9-ylacétylamino) éthyl] benzoatede 2-[(β-méthoxy β-métatrifluorométhylphényl) éthylamino] éthyle]
[1]
  Insulinémie au pic Variation %: 0%
[2]; Controle 3,54±0,24, amyline alone 1,71±0,27
  Tolérance au glucose K.10^-2: 3,79±0,38
[2]; Controle 5,93±0,48, amyline alone 6,87±0,77
  Insulinémie basale: 8,26±1,15 µU/ml
[2]; Controle 8,86±0,77, amyline alone 15,28±1,90
  Insulinémie 24 min après glucose: 15±1,86 µU/ml
[2]; Controle 24,80±1,86, amyline alone 23,54±1,7
  Insulinémie au pic: 23,60±2,17 µU/ml
[3]
  Cholestérol variation %: 0%

## CC(Cc1cccc(C(F)(F)F)c1)NCCOC(=O)c1ccccc1 (stereo not drawn) [Benfluorex, 1-(3-trifluorométhylphényl)-2-(β-benzoyloxyéthyl)aminopropane]
[4]
  Oxydation des LDL in vitro par le cuivre: Inactif à 10⁻⁴ M
[5]
  Oxydation des LDL in vitro par les monocytes: Inactif à 10⁻⁴ M

— patent publication EP0518769B1, “Ethanolaminebenzoate derivative, process for their preparation and pharmaceutical compositions containing them” (ADIR ET COMPAGNIE, priority 1991, dated 1992)
